From ChEMBL document CHEMBL1144219, “Synthesis of new 4-[2-(4-methyl(amino)sulfonylphenyl)-5-trifluoromethyl-2H-pyrazol-3-yl]-1,2,3,6-tetrahydropyridines: a search for novel nitric oxide donor anti-inflammatory agents” (2008)
Calls of active or inactive are those of the source. The calls are words filed in the database; no cut-off is given here.

Legend:
[1] = test system: Rattus norvegicus; test: Antiinflammatory activity against po dosed carrageenan-induced rat foot paw edema model; format: functional
[2] = test system: Rattus norvegicus; test: Antiinflammatory activity against carrageenan-induced rat foot paw edema model at 100 mg/kg, po; format: functional

Row | Compound | ED50 [1] | also measured
1 | CC(=O)Oc1ccccc1C(=O)O [ASPIRIN] | 129 mg/kg | –
2 | CCOC(=O)N1CC=C(c2cc(C(F)(F)F)nn2-c2ccc(S(C)(=O)=O)cc2)CC1 | – | inhibition in vivo at 100 mg/kg [2]: 24.1%
3 | CN1CC=C(c2cc(C(F)(F)F)nn2-c2ccc(S(C)(=O)=O)cc2)CC1 | 95.3 mg/kg | –
4 | CCOC(=O)N1CC=C(c2cc(C(F)(F)F)nn2-c2ccc(S(N)(=O)=O)cc2)CC1 | – | Activity [2]: inactive
5 | CS(=O)(=O)c1ccc(-n2nc(C(F)(F)F)cc2C2=CCNCC2)cc1 | 129 mg/kg | –
6 | NS(=O)(=O)c1ccc(-n2nc(C(F)(F)F)cc2C2=CCNCC2)cc1 | – | inhibition in vivo at 100 mg/kg [2]: 7.1%
7 | CN1CC=C(c2cc(C(F)(F)F)nn2-c2ccc(S(N)(=O)=O)cc2)CC1 | 61.2 mg/kg | –
8 | CS(=O)(=O)c1ccc(-n2nc(C(F)(F)F)cc2C2=CCN(N=O)CC2)cc1 | 115 mg/kg | –
